The assay addresses T1, a4b7 integrin interaction with MadCAM-1 (Homo sapiens, UniProt P13612+P26010).
T1 construct: capture of a4b7 integrin expressing cells, RPMI8866; endogenous in cells; host or cells: RPMI8866
T1 sequence (P13612 34-1032): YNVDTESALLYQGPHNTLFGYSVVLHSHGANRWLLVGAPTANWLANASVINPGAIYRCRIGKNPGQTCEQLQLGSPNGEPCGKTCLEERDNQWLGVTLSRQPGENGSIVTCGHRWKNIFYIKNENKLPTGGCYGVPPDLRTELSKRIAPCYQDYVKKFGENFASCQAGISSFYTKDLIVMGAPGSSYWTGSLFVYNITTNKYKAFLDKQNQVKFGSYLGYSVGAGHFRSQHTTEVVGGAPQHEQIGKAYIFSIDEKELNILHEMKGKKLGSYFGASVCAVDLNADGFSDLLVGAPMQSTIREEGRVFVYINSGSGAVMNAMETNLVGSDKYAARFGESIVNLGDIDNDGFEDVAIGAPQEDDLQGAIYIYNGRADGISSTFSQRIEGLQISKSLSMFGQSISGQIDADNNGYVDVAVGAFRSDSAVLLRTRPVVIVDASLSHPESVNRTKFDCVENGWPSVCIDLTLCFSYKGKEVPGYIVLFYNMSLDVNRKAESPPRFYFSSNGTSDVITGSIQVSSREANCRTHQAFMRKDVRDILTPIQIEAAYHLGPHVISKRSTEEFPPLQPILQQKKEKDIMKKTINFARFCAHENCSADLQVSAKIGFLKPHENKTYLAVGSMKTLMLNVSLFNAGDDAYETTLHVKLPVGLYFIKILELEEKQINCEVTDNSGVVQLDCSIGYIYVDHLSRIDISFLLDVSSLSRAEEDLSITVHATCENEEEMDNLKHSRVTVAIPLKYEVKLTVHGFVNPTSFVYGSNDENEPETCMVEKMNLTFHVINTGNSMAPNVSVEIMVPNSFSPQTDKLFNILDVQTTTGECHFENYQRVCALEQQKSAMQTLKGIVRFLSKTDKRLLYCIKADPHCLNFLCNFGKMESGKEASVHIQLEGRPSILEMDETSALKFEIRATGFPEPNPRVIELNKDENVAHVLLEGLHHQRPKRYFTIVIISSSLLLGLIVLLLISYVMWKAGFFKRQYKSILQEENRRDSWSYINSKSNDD
T1 sequence (P26010 20-798): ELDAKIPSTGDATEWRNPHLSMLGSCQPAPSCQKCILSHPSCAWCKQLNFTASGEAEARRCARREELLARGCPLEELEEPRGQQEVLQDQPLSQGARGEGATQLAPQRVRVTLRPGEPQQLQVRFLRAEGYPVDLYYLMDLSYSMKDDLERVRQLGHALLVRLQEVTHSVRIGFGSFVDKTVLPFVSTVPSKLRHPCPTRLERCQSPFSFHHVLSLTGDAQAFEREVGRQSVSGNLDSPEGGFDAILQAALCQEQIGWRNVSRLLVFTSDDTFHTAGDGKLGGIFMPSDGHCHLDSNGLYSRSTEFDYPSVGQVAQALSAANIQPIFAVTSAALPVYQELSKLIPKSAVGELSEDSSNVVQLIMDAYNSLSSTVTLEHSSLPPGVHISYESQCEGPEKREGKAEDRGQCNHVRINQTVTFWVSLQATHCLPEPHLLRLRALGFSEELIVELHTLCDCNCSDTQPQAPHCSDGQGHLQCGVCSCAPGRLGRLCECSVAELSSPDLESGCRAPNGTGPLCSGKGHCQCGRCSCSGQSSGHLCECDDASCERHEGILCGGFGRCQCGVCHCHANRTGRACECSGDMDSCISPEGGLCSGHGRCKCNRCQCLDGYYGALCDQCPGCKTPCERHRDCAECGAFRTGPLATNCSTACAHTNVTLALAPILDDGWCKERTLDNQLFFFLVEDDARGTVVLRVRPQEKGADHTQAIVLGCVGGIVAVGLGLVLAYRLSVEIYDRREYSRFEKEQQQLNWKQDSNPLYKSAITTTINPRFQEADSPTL
In words: a4b7 Cell Capture Assay (RPMI8866 cells on MAdCAM-1 Fc coated plates). To be noted: 50% human serum, 1 mM MgCl2, 1 hour incubation, CellTiter-Glo luminescence, read-out: a4B7 cell capture assay RMPI8866-MadCAM EC50. The format is cell-based. As to the method:
The potency of inhibitors in preventing a4b7 integrin interaction with MadCAM-1 was measured by monitoring the capture of a4b7 integrin expressing cells, RPMI8866, on recombinant human MAdCAM-1 Fc chimera protein-coated plates. The protein was a fusion between human MAdCAM-1 (Met1-Gln333, Accession #AAY82472) and human IgG1 (Pro100-Lys330)] (R&D Systems, Catalog #6056-MC). 96-well plates (Thermofisher, Catalog #136102) were coated with the recombinant protein by dispensing 100 μL (1.0 μg/mL) per well. After a quick spin to settle down the coating solution using a plate centrifuge, plates were incubated overnight at 4° C. in a moisture chamber. On Day 2, the plates were washed with PBS using a Bluecatbio Blue®Washer (GentleSpin wash, 3 cycles, pressure=1, volume 150 uL). Blocking solution (1.0% BSA in PBS, Sigma, Catalog #A7979) was then added at 200 uL/well, and the plates were quickly spun to settle down blocking buffer and incubated in cell culture incubator at 37° C. and 5% CO2 for 1 hour. The plates were then washed with 0.1% BSA in PBS using a Bluecatbio Blue®Washer (GentleSpin wash, 3 cycles, pressure=1, volume 150 uL). RPMI8866 cells suspended in assay medium (1 mM MgCl2 25 mM HEPES and 50% human serum, Sigma, Catalog #H4522) at a density of 1.0×10^6 cells/mL were added at 100 uL/well. Each compound evaluated was prepared as a DMSO stock solution. Test compounds were evaluated with a 9-point serial dilution curve (1000, 333.3, 111.1, 55.6, 27.8, 13.9, 6.9, 2.3, and 0.77 nM)) and were added to the plates using a Tecan D.30e Digita dispenser, the dispensed stock is 100 nL and the final DMSO concentration is 0.1%. Potent compounds were re-evaluated at a new 9-point serial dilution curve (100, 33.3, 11.1, 5.6, 2.8, 1.4, 0.69, 0.23, and 0.08 nM). Each titration curves were performed in triplicate on the same plate, and most of compounds were retested in different dates multiple times. The plates were shaken at 300 rpm on orbital plate shaker for 3 minutes to mix the cells and compounds, quickly spun to settle the cells and solution, and incubated in cell culture incubator at 37° C. and 5% CO2. After 1 hour incubation, the unbound cells were washed away with RPMI1640 medium supplemented with 1 mM MgCl2 and 1% BSA) (wash buffer) using a Bluecatbio Blue®Washer (MagbeadsSpin wash, 1 cycle, pressure 1, volume=150 uL). After wash buffer removal, A mixture of wash buffer/CellTiter-Glo® Reagent (Pormega, catalog #G7573) at 1:1 (V/V) was added at volume of 100 uL to each well. The plates were placed in a chamber at 25° C. and incubated for 30 minutes. Luminescence was recorded using a Envision plate reader 2105 according to CellTiter-Glo protocol.
The mean luminescence signals from negative control wells without MadCAM-1 coating and compound treatment (cells only) was defined as 100% binding inhibition, and the mean luminescence signals from positive control wells with MadCAM-1 coating but without compound treatment (MadCAM-1 and cells only) was defined as 0% binding inhibition. The luminescence signals from other compound treated wells were normalized in percentage scale accordingly. The normalized mean % inhibition data were plotted against logarithmic compound concentration in nanomolar and were fitted with 4-parameter logistic model to obtain IC50 for each compound.
With `Cc1cc2cc(c1F)[C@H](CC(=O)O)NC(=O)[C@H](n1cc(CCN3CC(F)C3)c(C(F)(F)F)cc1=O)c1cccc(c1)Cc1cccc(C)c1-2` (relative stereo) [Example 2, [(14R*,17S)-19-fluoro-14-{5-[2-(3-fluoroazetidin-1-yl)ethyl]-2-oxo-4-(trifluoromethyl)pyridin-1-yl}-3,20-dimethyl-15-oxo-16-azatetracyclo[16.3.1.1^{9,13}.0^{2,7}]tricosa-1(22),2(7),3,5,9,11,13(23),18,20-nonaen-17-yl]acetic acid], the half-maximal effective concentration (EC50) was 76 nM.

For `Cc1cc(C)c2c(c1)Oc1cccc(c1)[C@H](n1cc(CCN3CC(F)C3)c(C(F)(F)F)cc1=O)C(=O)N[C@@H](CC(=O)O)c1cc-2cc(C(F)(F)F)c1F` (relative stereo) [Example 4, [(14R*,17S)-19-fluoro-14-{5-[2-(3-fluoroazetidin-1-yl)ethyl]-2-oxo-4-(trifluoromethyl)pyridin-1-yl}-3,5-dimethyl-15-oxo-20-(trifluoromethyl)-8-oxa-16-azatetracyclo[16.3.1.1^{9,13}.0^{2,7}]tricosa-1(21),2(7),3,5,9,11,13(23),18(22),19-nonaen-17-yl]acetic acid], the 50% effective concentration (EC50) stood at 440 nM. For `Cc1cc(C(F)(F)F)cc2c1-c1cc(c(F)c(C(F)(F)F)c1)[C@H](CC(=O)O)NC(=O)[C@@H](n1cc(CCN3CC(F)C3)c(C(F)(F)F)cc1=O)c1cccc(c1)O2` (relative stereo) [Example 5, [(14R*,17S)-19-fluoro-14-{5-[2-(3-fluoroazetidin-1-yl)ethyl]-2-oxo-4-(trifluoromethyl)pyridin-1-yl}-3-methyl-15-oxo-5,20-bis(trifluoromethyl)-8-oxa-16-azatetracyclo[16.3.1.1^{9,13}.0^{2,7}]tricosa-1(21),2(7),3,5,9,11,13(23),18(22),19-nonaen-17-yl]acetic acid] the value was 330 nM; for `Cc1cccc2c1-c1cc(c(F)c(C(F)(F)F)c1)[C@H](CC(=O)O)NC(=O)[C@@H](n1cc(CCN3CC(F)C3)c(C(F)(F)F)cc1=O)c1cccc(c1)O2` (relative stereo) [Example 6, rel-2-((5S,8S)-14-fluoro-5-(5-(2-(3-fluoroazetidin-1-yl)ethyl)-2-oxo-4-(trifluoromethyl)pyridin-1(2H)-yl)-26-methyl-6-oxo-15-(trifluoromethyl)-3-oxa-7-aza-1,4(1,3),2(1,2)-tribenzenacyclooctaphane-8-yl)acetic acid], 230 nM. For the compound `Cc1cccc2c1-c1cc(C3CC3)c(F)c(c1)[C@H](CC(=O)O)NC(=O)[C@@H](n1cc(CCN3CC(F)C3)c(C(F)(F)F)cc1=O)c1cccc(c1)O2` (relative stereo) [Example 9, [(14R*,17S)-20-cyclopropyl-19-fluoro-14-{5-[2-(3-fluoroazetidin-1-yl)ethyl]-2-oxo-4-(trifluoromethyl)pyridin-1-yl}-3-methyl-15-oxo-8-oxa-16-azatetracyclo[16.3.1.1^{9,13}.0^{2,7}]tricosa-1(21),2(7),3,5,9,11,13(23),18(22),19-nonaen-17-yl]acetic acid], the EC50 was 72 nM. `Cc1ccc(C)c2c1Oc1cccc(c1)[C@H](n1cc(CCN3CC(F)C3)c(C(F)(F)F)cc1=O)C(=O)N[C@@H](CC(=O)O)c1cc-2cc(C(F)(F)F)c1F` (relative stereo) [Example 12, [(14R*,17S)-19-fluoro-14-{5-[2-(3-fluoroazetidin-1-yl)ethyl]-2-oxo-4-(trifluoromethyl)pyridin-1-yl}-3,6-dimethyl-15-oxo-20-(trifluoromethyl)-8-oxa-16-azatetracyclo[16.3.1.1^{9,13}.0^{2,7}]tricosa-1(22),2(7),3,5,9,11,13(23),18,20-nonaen-17-yl]acetic acid]: the EC50 was 970 nM.

As usually defined, the EC50 is the concentration needed to bring the measured effect to its halfway point.

These data come from patent US20240279214A1, “ALPHA4 BETA7 INEGRIN ANTAGONISTS AND USES THEREOF” (XinThera, Inc., priority 2022, published 2024).
